In US4451476A (priority 1983, dated 1984):
Values after ≈ are worked out from the molar mass of the structure shown. “Also recorded” adds a separate entry of the source.

How the values were obtained:
Polio-3 = experiment: microbe, parasite or virus in culture; assay type: cell-based; settings: read-out: MIC vs. Polio-3
Echo-11 = experiment: microbe, parasite or virus in culture; assay type: cell-based; settings: read-out: MIC vs. Echo-11
Echo-9 = experiment: In vitro MIC against Echo-9; assay type: cell-based
[1] = tested on: picornaviruses and enteroviruses; assay type: cell-based
poliovirus [2] = experiment: animal or person; assay type: in vivo, mice
poliovirus [3] = assay type: in vivo, mice; settings: parenteral medication
polio-2 virus = experiment: microbe, parasite or virus in culture; assay type: cell-based; settings: read-out: MIC vs. polio-2 virus
[4] = tested on: human rhinovirus serotypes; assay type: cell-based
rhinovirus Type 2 = experiment: microbe, parasite or virus in culture; assay type: cell-based; settings: for MIC: Enterovirus, read-out: MIC vs. rhinovirus Type 2 in vitro

Row | SMILES | MIC (rhinovirus Type 2) | other results
1 | COc1ccc(OCCCCCCCc2cc(C)no2)c(Cl)c1 [Example 2, 5-[7-(2-Chloro-4-methoxyphenoxy)heptyl]-3-methylisoxazole] |  | MIC (Polio-3): 0.08 µg/mL (≈ 0.237 µM); MIC (Echo-11): 0.04 µg/mL (≈ 0.118 µM); MIC (Echo-9): 0.15 µg/mL (≈ 0.444 µM); in vitro activity against picornaviruses and enteroviruses [1]: in vitro activity against a variety of picornaviruses and enteroviruses; also recorded: active against other picornaviruses and enterviruses; minimal effective dose (poliovirus [2]; Enterovirus C, in Mus musculus, po, 336 h, read-out: minimal inhibitory dose): 31 mg/kg; in vivo activity against poliovirus infections in mice (poliovirus [2]): active in vivo; in vivo activity against poliovirus infections in mice (poliovirus [2]; listed as 5-[7-(2-chloro-4-methoxyphenoxy)heptyl]-3-methylisoxazole): in vivo activity against poliovirus infections in mice; challenge doses of poliovirus at which death was prevented (poliovirus [3]; mice): ≤ 200 LD50; prevention of death in mice infected with poliovirus (poliovirus [3]; challenge doses as high as 200 LD50): prevented death; MIC (polio-2 virus): 0.15 µg/mL (≈ 0.444 µM); human rhinovirus serotypes against which active [4]: 24 of 27; most common human rhinovirus serotypes against which active [4]: six of the seven; times as active in vitro against rhinovirus Type 2 as the corresponding 2-chloro-4-methoxyphenoxy compounds of U.S. Pat. No. 4,268,678 (rhinovirus Type 2): at least 15 times
2 | COc1ccc(OCCCCCCc2cc(C)no2)c(Cl)c1 [Example 3, 5-[6-(2-Chloro-4-methoxyphenoxy)hexyl]-3-methylisoxazole] | 0.8 µg/mL (≈ 2.47 µM) | 
3 | COc1ccc(OCCCCCc2cc(C)no2)c(Cl)c1 [Example 4, 5-[5-(2-Chloro-4-methoxyphenoxy)pentyl]-3-methylisoxazole] | 0.4 µg/mL (≈ 1.29 µM) | 
4 | Cc1cc(CCCCCCCOc2ccc(C#N)cc2)on1 [Example 5, 5-[7-(4-Cyanophenoxy)heptyl]-3-methylisoxazole] |  | activity vs. rhinovirus Type 2 in vitro (rhinovirus Type 2): inactive
5 | Cc1cc(CCCCCCOc2ccc(C#N)cc2)on1 [Example 6, 5-[6-(4-Cyanophenoxy)hexyl]-3-methylisoxazole] | 3.1 µg/mL (≈ 10.9 µM) | 
6 | Cc1cc(CCCCCOc2ccc(C#N)cc2)on1 [Example 7, 5-[5-(4-Cyanophenoxy)pentyl]-3-methylisoxazole] |  | activity vs. rhinovirus Type 2 in vitro (rhinovirus Type 2): inactive
7 | Cc1cc(CCCCCCCOc2ccc(C(=O)OC(C)(C)C)cc2)on1 [Example 8, 5-[7-(4-Tertiary-butyloxycarbonylphenoxy)heptyl]-3-methylisoxazole] | 6.2 µg/mL (≈ 16.6 µM) | 
8 | Cc1cc(CCCCCCCCOc2ccc(C#N)cc2)on1 [Example 10, 5-[8-(4-Cyanophenoxy)octyl]-3-methylisoxazole] |  | activity vs. rhinovirus Type 2 in vitro (rhinovirus Type 2): inactive
9 | Cc1cc(CCCCCCCOc2ccc(OC(C)C)cc2)on1 [Example 11, 3-Methyl-5-[7-(4-isopropoxyphenoxy)heptyl]isoxazole] | 0.65 µg/mL (≈ 1.96 µM) | 
10 | Cc1cc(CCCCCCCOc2ccc(C(C)C)cc2)on1 [Example 12, 3-Methyl-5-[7-(4-isopropylphenoxy)heptyl]isoxazole] | 0.98 µg/mL (≈ 3.11 µM) | 
11 | Cc1cc(CCCCCCCOc2ccc(Cl)cc2)on1 [Example 14, 3-Methyl-5-[7-(4-chlorophenoxy)heptyl]isoxazole] | 1.5 µg/mL (≈ 4.87 µM) | MIC (polio-2 virus): 0.4 µg/mL (≈ 1.3 µM)
12 | Cc1ccc(OCCCCCCCc2cc(C)no2)c(Cl)c1 [Example 15, 5-[7-(2-Chloro-4-methylphenoxy)heptyl]-3-methylisoxazole] | 1.2 µg/mL (≈ 3.73 µM) | MIC (polio-2 virus): 0.82 µg/mL (≈ 2.55 µM)
13 | Cc1cc(CCCCCCCOc2ccc(C(=O)O)cc2)on1 [Example 16, 5-[7-(4-Carboxyphenoxy)heptyl]-3-methylisoxazole] | 10 µg/mL (≈ 31.5 µM) | 
14 | Cc1cc(CCCCCOc2ccc(C(=O)O)cc2)on1 [Example 17, 5-[5-(4-Carboxyphenoxy)pentyl]-3-methylisoxazole] | 12.5 µg/mL (≈ 43.2 µM) | 
15 | Cc1cc(CCCCCCCOc2cccc(C(=O)O)c2)on1 [Example 19, 5-[7-(3-Carboxyphenoxy)heptyl]-3-methylisoxazole] |  | activity vs. rhinovirus Type 2 in vitro (rhinovirus Type 2): inactive
16 | Cc1cc(CCCCCCCCOc2ccc(C(=O)O)cc2)on1 [Example 20, 5-[8-(4-Carboxyphenoxy)octyl]-3-methylisoxazole] |  | activity vs. rhinovirus Type 2 in vitro (rhinovirus Type 2): inactive
17 | CCOC(=O)c1ccc(OCCCCCCCc2cc(C)no2)cc1 [Example 22, 5-[7-(4-Ethoxycarbonylphenoxy)heptyl]-3-methylisoxazole] | 0.025 µg/mL (≈ 0.0724 µM) | 
18 | CCOC(=O)c1ccc(OCCCCCc2cc(C)no2)cc1 [Example 23, 5-[5-(4-Ethoxycarbonylphenoxy)pentyl]-3-methylisoxazole] | 0.015 µg/mL (≈ 0.0473 µM) | 

Row | SMILES | MIC (rhinovirus Type 2) | other results
19 | CCOC(=O)c1ccc(OCCCCCCc2cc(C)no2)cc1 [Example 24, 5-[6-(4-Ethoxycarbonylphenoxy)hexyl]-3-methylisoxazole] | 0.025 µg/mL (≈ 0.0754 µM) | 
20 | CCOC(=O)c1ccc(OCCCCCCCCc2cc(C)no2)cc1 [Example 25, 5-[8-(4-Ethoxycarbonylphenoxy)octyl]-3-methylisoxazole] | 0.05 µg/mL (≈ 0.139 µM) | 
21 | CCOC(=O)c1cccc(OCCCCCCCc2cc(C)no2)c1 [Example 26, 5-[7-(3-Ethoxycarbonylphenoxy)heptyl]-3-methylisoxazole] | 1.6 µg/mL (≈ 4.63 µM) | 
22 | Cc1cc(CCCCCCCOc2ccc(C(=O)OC(C)C)cc2)on1 [Example 27, 5-[7-(4-Isopropyloxycarbonylphenoxy)heptyl]-3-methylisoxazole] | 0.23 µg/mL (≈ 0.64 µM) | 
23 | CCCOC(=O)c1ccc(OCCCCCCCc2cc(C)no2)cc1 [Example 28, 5-[7-(4-Propyloxycarbonylphenoxy)heptyl]-3-methylisoxazole] | 0.07 µg/mL (≈ 0.195 µM) | 
24 | COC(=O)c1ccc(OCCCCCCCc2cc(C)no2)cc1 [Example 29, 5-[7-(4-Methoxycarbonylphenoxy)heptyl]-3-methylisoxazole] | 3 µg/mL (≈ 9.05 µM) | 
25 | CCOC(=O)c1ccc(OCCCCc2cc(C)no2)cc1 [Example 30, 5-[4-(4-Ethoxycarbonylphenoxy)butyl]-3-methylisoxazole] | 3.1 µg/mL (≈ 10.2 µM) | 
26 | CC(=O)c1ccc(OCCCCCCCc2cc(C)no2)cc1 [Example 31, 5-[7-(4-Acetylphenoxy)heptyl]-3-methylisoxazole] | 1.6 µg/mL (≈ 5.07 µM) | 
27 | CCC(=O)c1ccc(OCCCCCCCc2cc(C)no2)cc1 [Example 32, 5-[7-(4-Propionylphenoxy)heptyl]-3-methylisoxazole] | 1.7 µg/mL (≈ 5.16 µM) | 
28 | Cc1cc(CCCCCCCOc2ccc(C(=O)NN)cc2)on1 [Example 33, 5-[7-(4-Hydrazinocarbonylphenoxy)heptyl]-3-methylisoxazole] | 0.64 µg/mL (≈ 1.93 µM) | 
29 | Cc1cc(CCCCCCCOc2ccc(C(N)=O)cc2)on1 [Example 34, 5-[7-(4-Carbamylphenoxy)heptyl]-3-methylisoxazole] |  | activity vs. rhinovirus Type 2 in vitro (rhinovirus Type 2): not active
30 | Cc1cc(CCCCCCCOc2ccc(C(=O)N(C)C)cc2)on1 [Example 35(b), N,N-dimethyl-4-[7-(3-methyl-5-isoxazolyl)heptyloxy]benzamide] |  | MIC (polio-2 virus): 2.5 µg/mL (≈ 7.26 µM)
31 | CCC(=NO)c1ccc(OCCCCCCCc2cc(C)no2)cc1 [Example 36, 5-[7-(4-Propionylphenoxy)heptyl]-3-methylisoxazole oxime] | 2.6 µg/mL (≈ 7.55 µM) | MIC (polio-2 virus): 0.2 µg/mL (≈ 0.581 µM)
32 | Cc1cc(CCCCCCCOc2ccc([N+](=O)[O-])cc2)on1 [Example 37(b), 3-methyl-5-[7-(4-nitrophenoxy)heptyl]isoxazole] |  | MIC (polio-2 virus): 1.5 µg/mL (≈ 4.71 µM)
33 | COc1ccc(OCCCCCCCc2cc(C)no2)c([N+](=O)[O-])c1 [Example 38, 3-Methyl-5-[7-(2-nitro-4-methoxyphenoxy)heptyl]isoxazole] | 0.3 µg/mL (≈ 0.861 µM) | MIC (polio-2 virus): 0.17 µg/mL (≈ 0.488 µM)
34 | Cc1cc(CCCCCCCc2ccc(C#N)cc2)on1 [Example 39(f), 5-[7-(4-Cyanophenyl)heptyl]-3-methylisoxazole] | 11.2 µg/mL (≈ 39.7 µM) | 
35 | COc1ccc(OCCCCCc2cc(C)on2)c(Cl)c1 [Example 41, 3-[5-(2-Chloro-4-methoxyphenoxy)pentyl]-5-methylisoxazole] | 0.7 µg/mL (≈ 2.26 µM) | MIC (polio-2 virus): 1.4 µg/mL (≈ 4.52 µM)
